{
  "source": "ChEMBL document CHEMBL1128734",
  "about": "“Pyrrolo[1,2-a]benzimidazole-based quinones and iminoquinones. The role of the 3-substituent on cytotoxicity” (J Med Chem, 1995)",
  "key": {"[1]": {"experiment": "COMPARE correlation coefficient of the LC50 response pattern with that of APBI-A."}, "Cancer cell lines": {"tested_on": "Cancer cell lines", "experiment": "Ratio of the LC50 value to that of imino-APBI-A.", "assay_type": "functional"}, "[2]": {"experiment": "Ratio of the LC50 value to that of PBI-A.", "assay_type": "functional"}},
  "data": [
    {"molecule": "CC(=O)NC1=C(C)C(=O)c2c(nc3n2CCC3OC(C)=O)C1=O", "note": "(configuration not stated)", "values": [
      {"measurement": "COMPARE correlation coefficient", "setting": "[1]", "result": 1}
    ]},
    {"molecule": "CC(=O)NC1=C(C)C(=O)c2c(nc3n2CCC3OC(C)=O)C1=N", "note": "(configuration not stated)", "values": [
      {"measurement": "Ratio", "setting": "Cancer cell lines", "result": 1}
    ]},
    {"molecule": "CC(=O)NC1=C(C)C(=O)c2c(nc3n2CCC3)C1=O", "values": [
      {"measurement": "COMPARE correlation coefficient", "setting": "[1]", "result": 0.7}
    ]},
    {"molecule": "COCC(=O)C1CCn2c1nc1c2C(=O)C(C)=C(NC(C)=O)C1=N", "note": "(configuration not stated)", "values": [
      {"measurement": "Ratio", "setting": "Cancer cell lines", "result": 0.52}
    ]},
    {"molecule": "CCC(=O)OC1CCn2c1nc1c2C(=O)C(C)=C(N2CC2)C1=O", "note": "(configuration not stated)", "values": [
      {"measurement": "Ratio", "setting": "[2]", "result": 0.72}
    ]},
    {"molecule": "CCC(=O)OC1CCn2c1nc1c2C(=O)C(C)=C(NC(C)=O)C1=N", "note": "(configuration not stated)", "values": [
      {"measurement": "Ratio", "setting": "Cancer cell lines", "result": 0.26}
    ]},
    {"molecule": "CC1=C(N2CC2)C(=O)c2nc3n(c2C1=O)CCC3", "values": [
      {"measurement": "Ratio", "setting": "[2]", "result": 0.71}
    ]},
    {"molecule": "CC1=C(N2CC2)C(=O)c2nc3n(c2C1=O)CCC3OC(N)=O", "note": "(configuration not stated)", "values": [
      {"measurement": "Ratio", "setting": "[2]", "result": 0.84}
    ]},
    {"molecule": "CC(=O)NC1=C(C)C(=O)c2c(nc3n2CCC3O)C1=N", "note": "(configuration not stated)", "values": [
      {"measurement": "Ratio", "setting": "Cancer cell lines", "result": 0.09}
    ]},
    {"molecule": "CC(=O)OC1CCn2c1nc1c2C(=O)C(C)=C(N2CC2)C1=O", "note": "(configuration not stated)", "values": [
      {"measurement": "Ratio", "setting": "[2]", "result": 1}
    ]},
    {"molecule": "COCC(=O)C1CCn2c1nc1c2C(=O)C(C)=C(NC(C)=O)C1=O", "note": "(configuration not stated)", "values": [
      {"measurement": "COMPARE correlation coefficient", "setting": "[1]", "result": 0.71}
    ]},
    {"molecule": "CC(=O)NC1=C(C)C(=O)c2c(nc3n2CCC3OC(=O)c2ccccc2)C1=N", "note": "(configuration not stated)", "values": [
      {"measurement": "Ratio", "setting": "Cancer cell lines", "result": 0.58}
    ]}
  ]
}
